According to patent US12522595B2, “Bicyclic ether O-glycoprotein-2-acetamido-2-deoxy-3-D-glucopyranosidase inhibitors” (BIOGEN MA INC., priority 2019, dated 2026):

Target: T1, Recombinant full length human OGA enzyme (Homo sapiens, UniProt O60502)
T1 construct: Recombinant full length human OGA enzyme was purchased from Origene; purchased Origene
T1 sequence (O60502 1-916): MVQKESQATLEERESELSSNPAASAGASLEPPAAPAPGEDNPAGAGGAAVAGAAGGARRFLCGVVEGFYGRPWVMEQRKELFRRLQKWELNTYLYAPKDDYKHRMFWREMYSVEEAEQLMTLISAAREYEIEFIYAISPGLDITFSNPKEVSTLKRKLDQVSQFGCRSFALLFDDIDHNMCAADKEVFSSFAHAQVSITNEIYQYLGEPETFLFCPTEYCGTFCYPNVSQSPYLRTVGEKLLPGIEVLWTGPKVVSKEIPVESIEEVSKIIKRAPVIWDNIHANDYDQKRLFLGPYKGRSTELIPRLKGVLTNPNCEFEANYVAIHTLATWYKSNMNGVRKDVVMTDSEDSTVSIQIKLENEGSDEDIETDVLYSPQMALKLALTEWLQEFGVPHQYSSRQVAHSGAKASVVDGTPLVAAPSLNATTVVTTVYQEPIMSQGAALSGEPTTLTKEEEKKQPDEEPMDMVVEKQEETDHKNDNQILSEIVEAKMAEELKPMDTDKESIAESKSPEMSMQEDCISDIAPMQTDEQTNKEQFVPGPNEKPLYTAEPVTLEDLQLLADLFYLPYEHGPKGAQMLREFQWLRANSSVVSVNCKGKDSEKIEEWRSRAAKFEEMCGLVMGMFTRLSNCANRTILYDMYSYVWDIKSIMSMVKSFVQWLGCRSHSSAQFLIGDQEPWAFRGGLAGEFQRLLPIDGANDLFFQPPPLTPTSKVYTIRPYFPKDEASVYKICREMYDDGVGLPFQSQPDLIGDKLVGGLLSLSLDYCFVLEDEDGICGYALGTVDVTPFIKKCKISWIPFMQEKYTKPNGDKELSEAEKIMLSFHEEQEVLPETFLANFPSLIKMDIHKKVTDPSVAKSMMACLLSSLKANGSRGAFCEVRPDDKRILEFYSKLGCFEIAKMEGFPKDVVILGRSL
Assay: OGA enzyme inhibition biochemical assay
Details: 1 nM OGA, 100 μM 4-MUGlcNAc (Km), pH 6.4, 90 minutes at room temperature, 10-point dose-response from 20 μM
Experimental: N-(5-(((2S,4R)-4-([1,2,4]triazolo[4,3-a]pyrazin-3-yloxy)-2-methylpyrrolidin-1-yl)methyl)-4-fluorothiazol-2-yl)acetamide: The title compound was prepared in an analogous manner as Example 172 from 3-bromo-[1,2,4]triazolo[4,3-a]pyrazine. LCMS (ESI): [M+H] 392. ^1H NMR (600 MHz, CHLOROFORM-d) δ 10.75 (br s, 1H), 9.04 (s, 1H), 9.03 (s, 1H), 7.24 (s, 1H), 4.99-5.06 (m, 1H), 4.01 (d, J=14.49 Hz, 1H), 3.64 (d, J=14.67 Hz, 1H), 3.40 (d, J=11.55 Hz, 1H), 2.75 (dd, J=5.78, 11.46 Hz, 1H), 2.61-2.72 (m, 2H), 2.32 (s, 4H), 1.84-1.92 (m, 1H), 1.30 (d, J=5.87 Hz, 4H). ^19F NMR (565 MHz, CHLOROFORM-d) 6-115.92 (br s, 1F). OGA Enzyme Inhibition Biochemical Assay
Recombinant full length human OGA enzyme was purchased from Origene. 4-MUGlCNAc substrate was purchased from Sigma. All other reagents were purchased from Sigma or Fisher. Assay buffer consists of the McIlvaine buffer system, pH 6.4 (0.2M Na2HPO4 mixed with 0.1M citric acid) and 0.01% BSA. Reactions consist of 1 nM OGA, 100 μM 4-MUGlcNAc (Km), and compound in a final volume of 10 μl. Reactions were incubated for 90 minutes at room temperature and quenched with 40 μl of 3M glycine, pH 10 and read on a Perkin Elmer Envision plate reader (Ex: 355 nm/Em: 460 nm). Compounds were tested with a 10-point dose-response starting from 20 μM with a 4-fold dilution. Data, as presented in Table 1 below, was fit using GraphPad Prism using a 4-parameter fit with variable slope.

Row | IC50 [nM] | SMILES
1 | < 1 | CC(=O)Nc1ncc(CN2C[C@H](Oc3cc4c(Cl)ccnc4cc3F)C[C@@H]2C)s1 [Example 7, N-(5-(((2S,4R)-4-((4-chloro-7-fluoroquinolin-6-yl)oxy)-2-methylpyrrolidin-1-yl)methyl)thiazol-2-yl)acetamide]
2 | < 1 | CC(=O)Nc1ncc(CN2C[C@H](Oc3cccc4nccn34)C[C@@H]2C)s1 [Example 63, N-(5-(((2S,4R)-4-(imidazo[1,2-a]pyridin-5-yloxy)-2-methylpyrrolidin-1-yl)methyl)thiazol-2-yl)acetamide]
3 | < 1 | CC(=O)Nc1ncc(CN2C[C@H](Oc3ccc4ccc(F)cc4n3)C[C@@H]2C)s1 [Example 6, N-(5-(((2S,4R)-4-((7-fluoroquinolin-2-yl)oxy)-2-methylpyrrolidin-1-yl)methyl)thiazol-2-yl)acetamide]
4 | < 1 | CC(=O)Nc1ncc(CN2C[C@H](Oc3ccc4occc4n3)C[C@@H]2C)s1 [Example 65, N-(5-(((2S,4R)-4-(furo[3,2-b]pyridin-5-yloxy)-2-methylpyrrolidin-1-yl)methyl)thiazol-2-yl)acetamide]
5 | < 1 | CC(=O)Nc1ncc(CN2C[C@H](Oc3ccc4cn(C)nc4c3)C[C@@H]2C)s1 [Example 52, N-(5-(((2S,4R)-2-methyl-4-((2-methyl-2H-indazol-6-yl)oxy)pyrrolidin-1-yl)methyl)thiazol-2-yl)acetamide]
6 | < 1 | CC(=O)Nc1ncc(CN2C[C@H](Oc3cn4nc(C)cc4cn3)C[C@@H]2C)s1 [Example 53, N-(5-(((2S,4R)-2-methyl-4-((2-methylpyrazolo[1,5-a]pyrazin-6-yl)oxy)pyrrolidin-1-yl)methyl)thiazol-2-yl)acetamide]
7 | 1.9 | CC(=O)Nc1ncc(CN2C[C@H](Oc3cc(C(N)=O)nc4ccccc34)C[C@@H]2C)s1 [Example 21, 4-(((3R,5S)-1-((2-acetamidothiazol-5-yl)methyl)-5-methylpyrrolidin-3-yl)oxy)quinoline-2-carboxamide]
8 | < 1 | CC(=O)Nc1ncc(CN2C[C@H](Oc3cnc4cc(F)c(F)cc4n3)C[C@@H]2C)s1 [Example 9, N-(5-(((2S,4R)-4-((6,7-difluoroquinoxalin-2-yl)oxy)-2-methylpyrrolidin-1-yl)methyl)thiazol-2-yl)acetamide]
9 | < 1 | CC(=O)Nc1nc(F)c(CN2C[C@H](Oc3ccc4nccnc4n3)C[C@@H]2C)s1 [Example 117, N-(4-fluoro-5-(((2S,4R)-2-methyl-4-(pyrido[2,3-b]pyrazin-6-yloxy)pyrrolidin-1-yl)methyl)thiazol-2-yl)acetamide]
10 | < 1 | CC(=O)Nc1nc(F)c(CN2C[C@H](Oc3ccc4ncoc4c3)C[C@@H]2C)s1 [Example 76, N-(5-(((2S,4R)-4-(benzo[d]oxazol-6-yloxy)-2-methylpyrrolidin-1-yl)methyl)-4-fluorothiazol-2-yl)acetamide]
11 | < 1 | CC(=O)Nc1nc(F)c(CN2C[C@H](Oc3ncnc4c(F)cccc34)C[C@@H]2C)s1 [Example 122, N-(4-fluoro-5-(((2S,4R)-4-((8-fluoroquinazolin-4-yl)oxy)-2-methylpyrrolidin-1-yl)methyl)thiazol-2-yl)acetamide]
12 | < 1 | CC(=O)Nc1ncc(CN2C[C@H](Oc3ncnc4occc34)C[C@@H]2C)s1 [Example 73, N-(5-(((2S,4R)-4-(furo[2,3-d]pyrimidin-4-yloxy)-2-methylpyrrolidin-1-yl)methyl)thiazol-2-yl)acetamide]

The remaining lines, values behind:

Row | SMILES | IC50 [nM]
13 | CC(=O)Nc1nc(F)c(CN2C[C@H](Oc3ccn4nc(C)nc4c3)C[C@@H]2C)s1 [Example 173, N-(4-fluoro-5-(((2S,4R)-2-methyl-4-((2-methyl-[1,2,4]triazolo[1,5-a]pyridin-7-yl)oxy)pyrrolidin-1-yl)methyl)thiazol-2-yl)acetamide] | < 1
14 | CC(=O)Nc1nc(F)c(CN2C[C@H](Oc3nccc4ncnn34)C[C@@H]2C)s1 [Example 145, N-(5-(((2S,4R)-4-([1,2,4]triazolo[1,5-c]pyrimidin-5-yloxy)-2-methylpyrrolidin-1-yl)methyl)-4-fluorothiazol-2-yl)acetamide] | < 1
15 | CC(=O)Nc1nc(F)c(CN2C[C@H](Oc3nccc4ncccc34)C[C@@H]2C)s1 [Example 114, N-(5-(((2S,4R)-4-((1,6-naphthyridin-5-yl)oxy)-2-methylpyrrolidin-1-yl)methyl)-4-fluorothiazol-2-yl)acetamide] | < 1
16 | CC(=O)Nc1nc(F)c(CN2C[C@H](Oc3ncnc4ccoc34)C[C@@H]2C)s1 [Example 94, N-(4-fluoro-5-(((2S,4R)-4-(furo[3,2-d]pyrimidin-4-yloxy)-2-methylpyrrolidin-1-yl)methyl)thiazol-2-yl)acetamide] | < 1
17 | CC(=O)Nc1nc(F)c(CN2C[C@H](Oc3cccc4nccn34)C[C@@H]2C)s1 [Example 64, N-(4-fluoro-5-(((2S,4R)-4-(imidazo[1,2-a]pyridin-5-yloxy)-2-methylpyrrolidin-1-yl)methyl)thiazol-2-yl)acetamide] | < 1
18 | CC(=O)Nc1nc(F)c(CN2C[C@H](Oc3cnc4nccn4c3)C[C@@H]2C)s1 [Example 164, N-(4-fluoro-5-(((2S,4R)-4-(imidazo[1,2-a]pyrimidin-6-yloxy)-2-methylpyrrolidin-1-yl)methyl)thiazol-2-yl)acetamide] | < 1
19 | CC(=O)Nc1nc(F)c(CN2C[C@H](Oc3ccnc4ccoc34)C[C@@H]2C)s1 [Example 47, N-(4-fluoro-5-(((2S,4R)-4-(furo[3,2-b]pyridin-7-yloxy)-2-methylpyrrolidin-1-yl)methyl)thiazol-2-yl)acetamide] | < 1
20 | CC(=O)Nc1nc(F)c(CN2C[C@H](Oc3ncnn4cccc34)C[C@@H]2C)s1 [Example 106, N-(4-fluoro-5-(((2S,4R)-2-methyl-4-(pyrrolo[2,1-f][1,2,4]triazin-4-yloxy)pyrrolidin-1-yl)methyl)thiazol-2-yl)acetamide] | < 1
21 | CC(=O)Nc1nc(F)c(CN2C[C@H](Oc3ccn4nc(C)cc4n3)C[C@@H]2C)s1 [Example 112, N-(4-fluoro-5-(((2S,4R)-2-methyl-4-((2-methylpyrazolo[1,5-a]pyrimidin-5-yl)oxy)pyrrolidin-1-yl)methyl)thiazol-2-yl)acetamide] | < 1
22 | CC(=O)Nc1ncc(CN2C[C@H](Oc3nc4c(cc3C#N)CCCC4)C[C@@H]2C)s1 [Example 32, N-(5-(((2S,4R)-4-((3-cyano-5,6,7,8-tetrahydroquinolin-2-yl)oxy)-2-methylpyrrolidin-1-yl)methyl)thiazol-2-yl)acetamide] | 11
23 | CC(=O)Nc1nc(F)c(CN2C[C@H](Oc3nccc4nn(C)cc34)C[C@@H]2C)s1 [Example 136, N-(4-fluoro-5-(((2S,4R)-2-methyl-4-((2-methyl-2H-pyrazolo[4,3-c]pyridin-4-yl)oxy)pyrrolidin-1-yl)methyl)thiazol-2-yl)acetamide] | < 1
24 | CC(=O)Nc1nc(F)c(CN2C[C@H](Oc3nc4c(F)cccc4o3)C[C@@H]2C)s1 [Example 127, N-(4-fluoro-5-(((2S,4R)-4-((4-fluorobenzo[d]oxazol-2-yl)oxy)-2-methylpyrrolidin-1-yl)methyl)thiazol-2-yl)acetamide] | < 1
25 | CC(=O)Nc1nc(F)c(CN2C[C@H](Oc3cccn4nccc34)C[C@@H]2C)s1 [Example 141, N-(4-fluoro-5-(((2S,4R)-2-methyl-4-(pyrazolo[1,5-a]pyridin-4-yloxy)pyrrolidin-1-yl)methyl)thiazol-2-yl)acetamide] | < 1
